In ChEMBL document CHEMBL2203060, “Design, synthesis and biological evaluation of N-arylphenyl-2,2-dichloroacetamide analogues as anti-cancer agents” (Bioorg Med Chem Lett, 2012):

What was measured:
Format in all cases: functional, cell-based
A549 = experiment: Cytotoxicity against human A549 cells after 68 hrs by MTT assay; settings: A549, 68 h
[1] = Cytotoxicity against human KB-3-1 cells after 68 hrs by MTT assay; settings: KB 3-1, 68 h
NCI-H460 = experiment: Cytotoxicity against human H460 cells after 68 hrs by MTT assay; settings: NCI-H460, 68 h

Which results are given for `COc1ccccc1-c1cc(NC(=O)C(Cl)Cl)cc(-c2ccccc2OC)c1`?
IC50 (A549): 25.5 µM; IC50 [1]: > 30 µM; IC50 (NCI-H460): > 30 µM

What does the source list for `COc1cccc(-c2cccc(NC(=O)C(Cl)Cl)c2)c1`?
IC50 (A549): 4.31 µM; IC50 [1]: 43.3 µM; IC50 (NCI-H460): 33.8 µM

What does the source list for `O=C([O-])C(Cl)Cl.[Na+]` [SODIUM DICHLOROACETATE]?
IC50 (A549): 4290 µM; IC50 [1]: 5880 µM; IC50 (NCI-H460): 3890 µM

For `O=C(Nc1cc(-c2ccc3c(c2)OCO3)cc(-c2ccc3c(c2)OCO3)c1)C(Cl)Cl`, which IC50 (A549) is on record?
Its IC50 is 1.73 µM.

What about the IC50 [1] of the same compound?
Its IC50 is 2.4 µM.

And the IC50 (NCI-H460)?
The IC50 was 1.04 µM.

For `COC(=O)c1ccc(-c2cccc(NC(=O)C(Cl)Cl)c2)cc1`, which IC50 (A549) is on record?
The IC50 was > 50 µM.

What about the IC50 [1] of the same compound?
Its IC50 is > 50 µM.

What about the IC50 (NCI-H460) of the same compound?
The IC50 was > 50 µM.

With `COc1ccccc1-c1cccc(NC(=O)C(Cl)Cl)c1` as the compound, how does the IC50 (A549) read?
Its IC50 is 13.1 µM.

And the IC50 [1]?
The IC50 was 13.1 µM.

What about the IC50 (NCI-H460) of the same compound?
The IC50 was 40.4 µM.

What does the source list for `COc1ccc(-c2cc(NC(=O)C(Cl)Cl)cc(-c3ccc(OC)cc3)c2)cc1`?
IC50 (A549): 20.8 µM; IC50 [1]: > 30 µM; IC50 (NCI-H460): > 30 µM

Which results are given for `O=C(Nc1cccc(-c2cccs2)c1)C(Cl)Cl`?
IC50 (A549): 47.6 µM; IC50 [1]: > 50 µM; IC50 (NCI-H460): > 50 µM

For `CSc1ccc(-c2cc(NC(=O)C(Cl)Cl)cc(-c3ccc(SC)cc3)c2)cc1`, which IC50 (A549) is on record?
Its IC50 is 22.3 µM.

What about the IC50 [1] of the same compound?
The IC50 was > 30 µM.

And the IC50 (NCI-H460)?
Its IC50 is > 30 µM.

For `O=C(Nc1cccc(-c2ccccc2Cl)c1)C(Cl)Cl`, which IC50 (A549) is on record?
Its IC50 is 22.6 µM.

What about the IC50 [1] of the same compound?
Its IC50 is > 50 µM.

What about the IC50 (NCI-H460) of the same compound?
The IC50 was > 50 µM.

What does the source list for `CCOc1cccc(-c2cc(NC(=O)C(Cl)Cl)cc(-c3cccc(OCC)c3)c2)c1`?
IC50 (A549): 8.83 µM; IC50 [1]: 14.8 µM; IC50 (NCI-H460): 4.95 µM

With `COc1ccc(-c2cc(NC(=O)C(Cl)Cl)cc(-c3ccc(OC)c(F)c3)c2)cc1F` as the compound, how does the IC50 (A549) read?
Its IC50 is 1.95 µM.

And the IC50 [1]?
The IC50 was 2.94 µM.

What about the IC50 (NCI-H460) of the same compound?
The IC50 was 1.76 µM.

Which IC50 (A549) does the source give for `O=C(Nc1cccc(-c2ccccc2F)c1)C(Cl)Cl` here?
The IC50 was 13.2 µM.

And the IC50 [1]?
The IC50 was 48.3 µM.

What about the IC50 (NCI-H460) of the same compound?
Its IC50 is 26.8 µM.

Which IC50 (A549) does the source give for `Cc1ccc(-c2cccc(NC(=O)C(Cl)Cl)c2)cc1` here?
Its IC50 is 8.3 µM.

What about the IC50 [1] of the same compound?
The IC50 was > 50 µM.

And the IC50 (NCI-H460)?
Its IC50 is 8 µM.

With `CCOc1ccc(-c2cc(NC(=O)C(Cl)Cl)cc(-c3ccc(OCC)cc3)c2)cc1` as the compound, how does the IC50 (A549) read?
Its IC50 is 8.05 µM.

And the IC50 [1]?
Its IC50 is 23.9 µM.

And the IC50 (NCI-H460)?
Its IC50 is 6.08 µM.

Which results are given for `O=C(Nc1cccc(-c2cccc(NC(=O)C(Cl)Cl)c2)c1)C(Cl)Cl`?
IC50 (A549): 47.9 µM; IC50 [1]: > 50 µM; IC50 (NCI-H460): > 50 µM

Which IC50 (A549) does the source give for `CC(C)c1ccc(-c2cc(NC(=O)C(Cl)Cl)cc(-c3ccc(C(C)C)cc3)c2)cc1` here?
Its IC50 is 17.4 µM.

And the IC50 [1]?
Its IC50 is > 30 µM.

And the IC50 (NCI-H460)?
The IC50 was 24.8 µM.

Which IC50 (A549) does the source give for `COc1cc(F)cc(-c2cc(NC(=O)C(Cl)Cl)cc(-c3cc(F)cc(OC)c3)c2)c1` here?
Its IC50 is 8.99 µM.

What about the IC50 [1] of the same compound?
Its IC50 is 5.99 µM.

What about the IC50 (NCI-H460) of the same compound?
Its IC50 is 2.9 µM.

What does the source list for `O=C(Nc1cccc(-c2ccccc2C(F)(F)F)c1)C(Cl)Cl`?
IC50 (A549): 7.5 µM; IC50 [1]: 35.9 µM; IC50 (NCI-H460): 7.55 µM

Which IC50 (A549) does the source give for `Nc1cccc(-c2cccc(NC(=O)C(Cl)Cl)c2)c1` here?
The IC50 was > 50 µM.

And the IC50 [1]?
Its IC50 is 26.1 µM.

And the IC50 (NCI-H460)?
The IC50 was > 50 µM.

Which IC50 (A549) does the source give for `COc1cccc(-c2cc(NC(=O)C(Cl)Cl)cc(-c3cccc(OC)c3)c2)c1` here?
Its IC50 is 9.4 µM.

And the IC50 [1]?
The IC50 was > 30 µM.

And the IC50 (NCI-H460)?
The IC50 was > 30 µM.

Which results are given for `O=C(Nc1cccc(-c2ccoc2)c1)C(Cl)Cl`?
IC50 (A549): 8.48 µM; IC50 [1]: > 50 µM; IC50 (NCI-H460): 37.6 µM

Which results are given for `O=C(Nc1cccc(-c2ccsc2)c1)C(Cl)Cl`?
IC50 (A549): > 50 µM; IC50 [1]: > 50 µM; IC50 (NCI-H460): > 50 µM

What does the source list for `O=C(Nc1cccc(-c2ccc(Cl)cc2)c1)C(Cl)Cl`?
IC50 (A549): 36.2 µM; IC50 [1]: 38.2 µM; IC50 (NCI-H460): > 50 µM

With `O=C(Nc1cccc(-c2cccc(F)c2)c1)C(Cl)Cl` as the compound, how does the IC50 (A549) read?
Its IC50 is 9.53 µM.

And the IC50 [1]?
The IC50 was > 50 µM.

And the IC50 (NCI-H460)?
Its IC50 is > 50 µM.

For `O=C(Nc1cccc(-c2ccccn2)c1)C(Cl)Cl`, which IC50 (A549) is on record?
Its IC50 is > 50 µM.

And the IC50 [1]?
The IC50 was > 50 µM.

And the IC50 (NCI-H460)?
Its IC50 is > 50 µM.

What does the source list for `CSc1cccc(-c2cc(NC(=O)C(Cl)Cl)cc(-c3cccc(SC)c3)c2)c1`?
IC50 (A549): 15.9 µM; IC50 [1]: > 30 µM; IC50 (NCI-H460): > 30 µM

Which IC50 (A549) does the source give for `O=C(Nc1cccc(-c2ccc(-c3ccccc3)cc2)c1)C(Cl)Cl` here?
The IC50 was > 50 µM.

What about the IC50 [1] of the same compound?
Its IC50 is > 50 µM.

What about the IC50 (NCI-H460) of the same compound?
The IC50 was 10.9 µM.

Which IC50 (A549) does the source give for `CC(C)Oc1ccc(-c2cc(NC(=O)C(Cl)Cl)cc(-c3ccc(OC(C)C)cc3)c2)cc1` here?
Its IC50 is 3.82 µM.

What about the IC50 [1] of the same compound?
Its IC50 is 8.85 µM.

What about the IC50 (NCI-H460) of the same compound?
Its IC50 is 2.86 µM.

For `COc1ccc(-c2cccc(NC(=O)C(Cl)Cl)c2)cc1`, which IC50 (A549) is on record?
Its IC50 is 8.53 µM.

And the IC50 [1]?
Its IC50 is > 50 µM.

What about the IC50 (NCI-H460) of the same compound?
Its IC50 is 43.3 µM.

With `O=C(Nc1cccc(-c2ccc(C(F)(F)F)cc2)c1)C(Cl)Cl` as the compound, how does the IC50 (A549) read?
Its IC50 is 23.5 µM.

What about the IC50 [1] of the same compound?
Its IC50 is > 50 µM.

And the IC50 (NCI-H460)?
Its IC50 is 33.5 µM.

What does the source list for `O=C(Nc1cc(-c2ccc(OC3CCCCO3)cc2)cc(-c2ccc(OC3CCCCO3)cc2)c1)C(Cl)Cl` (stereo not drawn)?
IC50 (A549): 2.75 µM; IC50 [1]: 7.22 µM; IC50 (NCI-H460): 2.42 µM

Which IC50 (A549) does the source give for `O=C(Nc1cccc(-c2nccs2)c1)C(Cl)Cl` here?
The IC50 was > 50 µM.

And the IC50 [1]?
Its IC50 is > 50 µM.

What about the IC50 (NCI-H460) of the same compound?
The IC50 was > 50 µM.

With `O=C(Nc1cccc(-c2ccccc2)c1)C(Cl)Cl` as the compound, how does the IC50 (A549) read?
Its IC50 is 8.9 µM.

And the IC50 [1]?
The IC50 was 46.8 µM.

What about the IC50 (NCI-H460) of the same compound?
Its IC50 is 20.2 µM.

Which results are given for `O=C(Nc1cccc(-c2ccc(F)cc2)c1)C(Cl)Cl`?
IC50 (A549): 7.84 µM; IC50 [1]: 26.2 µM; IC50 (NCI-H460): > 50 µM

Which IC50 (A549) does the source give for `Cc1cccc(-c2cccc(NC(=O)C(Cl)Cl)c2)c1` here?
The IC50 was 8.7 µM.

And the IC50 [1]?
The IC50 was > 50 µM.

What about the IC50 (NCI-H460) of the same compound?
Its IC50 is 24.2 µM.

Which IC50 (A549) does the source give for `O=C(Nc1cccc(-c2cccc(C(F)(F)F)c2)c1)C(Cl)Cl` here?
Its IC50 is 18.5 µM.

What about the IC50 [1] of the same compound?
The IC50 was > 50 µM.

And the IC50 (NCI-H460)?
Its IC50 is 30.2 µM.

For `CCOc1ccccc1-c1cc(NC(=O)C(Cl)Cl)cc(-c2ccccc2OCC)c1`, which IC50 (A549) is on record?
Its IC50 is 7.28 µM.

And the IC50 [1]?
Its IC50 is 8.73 µM.

And the IC50 (NCI-H460)?
Its IC50 is 5.09 µM.

What does the source list for `CSc1ccccc1-c1cc(NC(=O)C(Cl)Cl)cc(-c2ccccc2SC)c1`?
IC50 (A549): 6.51 µM; IC50 [1]: > 30 µM; IC50 (NCI-H460): > 30 µM

With `Cc1ccccc1-c1cccc(NC(=O)C(Cl)Cl)c1` as the compound, how does the IC50 (A549) read?
The IC50 was 9.86 µM.

What about the IC50 [1] of the same compound?
The IC50 was 42 µM.

And the IC50 (NCI-H460)?
Its IC50 is 31.6 µM.

With `O=C(Nc1cccc(-c2cccc(Cl)c2)c1)C(Cl)Cl` as the compound, how does the IC50 (A549) read?
Its IC50 is 21.4 µM.

And the IC50 [1]?
Its IC50 is > 50 µM.

And the IC50 (NCI-H460)?
Its IC50 is > 50 µM.
